Reference: patent US20160251403A1, “PEPTIDE COMBINATIONS AND USES THEREOF IN TREATING DUST MITE ALLERGY” (ALK-ABELLO A/S, priority 2013, published 2016)
Residue numbers refer to the chain shown, from its start. pIC50: −log10 of the molar value. No end group written: not given here.

What was measured:
DPA10103-DPB10201 = target: T1, DPA10103-DPB10201 (Homo sapiens, UniProt P04440+P20036, A65V/A84D/A85E/K98E); test: Competitive MHC class II binding assay, DPA10103-DPB10201
T1 sequence (P20036 29-260): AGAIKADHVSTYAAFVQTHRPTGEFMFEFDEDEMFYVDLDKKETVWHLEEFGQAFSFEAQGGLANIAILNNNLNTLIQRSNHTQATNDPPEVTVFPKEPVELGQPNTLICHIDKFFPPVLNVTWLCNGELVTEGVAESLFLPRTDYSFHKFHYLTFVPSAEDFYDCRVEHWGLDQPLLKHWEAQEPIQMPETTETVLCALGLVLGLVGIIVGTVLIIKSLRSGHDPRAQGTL
T1 sequence (P04440 30-258 A65V/A84D/A85E/K98E): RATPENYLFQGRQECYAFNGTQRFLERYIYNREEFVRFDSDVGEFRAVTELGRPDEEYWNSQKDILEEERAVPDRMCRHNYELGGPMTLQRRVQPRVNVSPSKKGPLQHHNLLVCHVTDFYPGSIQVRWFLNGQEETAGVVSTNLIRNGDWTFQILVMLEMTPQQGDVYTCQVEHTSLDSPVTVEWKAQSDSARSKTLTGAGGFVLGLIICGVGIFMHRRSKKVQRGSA

DPA10103-DPB10401 = target: T2, DPA10103-DPB10401 (Homo sapiens, UniProt P04440+P20036); test: Competitive MHC class II binding assay, DPA10103-DPB10401
T2 sequence (P20036 29-260): T1 sequence (P20036 29-260)
T2 sequence (P04440 30-258): T1 sequence (P04440 30-258 A65V/A84D/A85E/K98E) with V36A, D55A, E56A, E69K

DRB1_0101 = DRB1_0101 (Homo sapiens, UniProt P01903+P01911, A100R/D57E/F55L/F60I/F76Y/I96L/L162R/M171V/P40L/Q125E/R42F/V115G/Y59C); test: Competitive MHC class II binding assay, DRB1_0101;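 note: competition against a radiolabeled probe peptide (0.1–1 nM) for purified HLA class II protein over 2–4 days, bound counts read after antibody capture, six competitor levels across 100,000-fold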
DRB1_0405 = DRB1_0405 (Homo sapiens, UniProt P01903+P01911, A100R/A169T/D86S/F76Y/I96L/K127E/L162R/M171V/N62H/P40V/Q125Y/R42H/S133A/S149N/S66Y/V115G/V209L/W38E); test: Competitive MHC class II binding assay, DRB1_0405
DRB1_0701 = DRB1_0701 (Homo sapiens, UniProt P01903+P01911, A100R/A102G/A103Q/D57E/D86V/E43K/F76Y/K127E/L162R/M171V/P40G/Q125H/Q99D/R33Q/R42Y/R54Q/S133A/S66F/T210M/V115G/Y107V/Y59L/Y89S); test: Competitive MHC class II binding assay, DRB1_0701;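 note: displacement of a radiolabeled reference peptide from purified HLA class II protein, with complex-bound radioactivity counted after 2–4 days of incubation and six concentrations spanning a 100,000-fold range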
DRB1_0802 = DRB1_0802 (Homo sapiens, UniProt P01903+P01911, A100R/A103L/A169T/F76Y/H45Y/I96F/K41T/L162R/M171V/P40S/Q125H/Q178H/Q39Y/Q99D/R218S/R42G/S66Y/V115G/W38E); test: Competitive MHC class II binding assay, DRB1_0802
DRB1_0901 = DRB1_0901 (Homo sapiens, UniProt P01903+P01911, A100R/A103E/D57H/D86V/F55Y/F60I/F76Y/I96F/K127E/L162R/M171V/P40D/Q125H/Q99R/R33Q/R42F/S133A/S66N/T210M/V115G/W38K/Y107V/Y59G/Y89S); test: Competitive MHC class II binding assay, DRB1_0901;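 note: displacement of a radiolabeled probe peptide from purified HLA class II protein, bound counts read after two to four days incubation, six concentrations spanning 100,000-fold, unlabeled probe as reference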
DRB1_1101 = DRB1_1101 (Homo sapiens, UniProt P01903+P01911, A100R/A169T/A87E/I96F/K41T/L162R/M171V/P40S/Q125H/Q178H/Q39Y/Q99D/R42S/S66Y/T262R/V115G/W38E); test: Competitive MHC class II binding assay, DRB1_1101
DRB1_1201 = DRB1_1201 (Homo sapiens, UniProt P01903+P01911, A100R/A169T/D57E/D86V/F55L/H45Y/K41T/L162R/M171V/P40S/Q125H/Q178H/Q39Y/Q99D/R42G/S66L/T262R/V114A/V67L/W38E/Y59H/Y61H/Y89S); test: Competitive MHC class II binding assay, DRB1_1201
DRB1_1302 = DRB1_1302 (Homo sapiens, UniProt P01903+P01911, A100E/A169T/K41T/L162R/M171V/P40S/Q125H/Q178H/Q39Y/Q99D/R42S/S66N/T262R/V115G/W38E/Y61H); test: Competitive MHC class II binding assay, DRB1_1302;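 note: purified HLA class II protein incubated two to four days with a radiolabeled reference binder and test peptide at six concentrations over a 100,000-fold range, complex-bound radioactivity counted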
DRB1_1501 = DRB1_1501 (Homo sapiens, UniProt P01903+P01911); test: Competitive MHC class II binding assay, DRB1_1501
DRB3_0202 = DRB3_0202 (Homo sapiens, UniProt P01903+P79483, A212P/D57E/F66Y/L67A/R103Q/R218S/R40L/S89Y/T80R/V86D/Y55F/Y59H); test: Competitive MHC class II binding assay, DRB3_0202
DRB4_0101 = DRB4_0101 (Homo sapiens, UniProt P01903+P13762, G164S); test: Competitive MHC class II binding assay, DRB4_0101
DRB5_0101 = DRB5_0101 (Homo sapiens, UniProt P01903+Q30154); test: Competitive MHC class II binding assay, DRB5_0101
DQA10501-DQB10201 = DQA10501-DQB10201 (Homo sapiens, UniProt P01909+P01920, A45G/A70V/D89A/E106A/E77G/E98D/H199R/L107V/N214S/P84L/P87L/T103K/T109R/T172A/T60S/V78E/V99I/Y58L/Y62S/Y69I/Y79F); test: Competitive MHC class II binding assay, DQA10501-DQB10201
DQA10501-DQB10301 = DQA10501-DQB10301 (Homo sapiens, UniProt P01909+P01920); test: Competitive MHC class II binding assay, DQA10501-DQB10301
DQA10102-DQB10602 = test: Competitive MHC class II binding assay, DQA10102-DQB10602; conditions: read-out: HLA-DQA10102-DQB10602; positive binding at cutoff 1000 nM
DQA10101-DQB10501 = DQA10101-DQB10501 (Homo sapiens, UniProt P01909+P01920, A157S/A45G/A70V/C70R/D89V/E106S/E118A/E183D/E77G/F83G/G63E/H151Q/H199R/H252R/H253Q/I129T/I235V/I88M/INS77G/K197Q/L107V/L117V/L119Y/L178F/L71W/L74F/L85Q/L91A/L98M/M46L/N214S/P87R/Q116E/Q256R/Q57E/Q76K/R102G/R240Q/R75S/R78G/S102Y/S185I/S41F/S97I/T103A/T109R/T121G/T122I/T172A/T86R/V148I/V68A/V73E/Y34C/Y58G/Y62H); test: Competitive MHC class II binding assay, DQA10101-DQB10501; conditions: positive binding at cutoff 1000 nM; read-out: HLA-DQA10101-DQB10501
DRB1_0401 = DRB1_0401 (Homo sapiens, UniProt P01903+P01911, A100K/A169T/F76Y/I96L/K127E/L162R/M171V/N62H/P40V/Q125Y/R42H/S133A/S149N/S66Y/V115G/V209L/W38E); test: Competitive MHC class II binding assay, DRB1_0401
DRB3_0101 = DRB3_0101 (Homo sapiens, UniProt P01903+P79483); test: Competitive MHC class II binding assay, DRB3_0101
DPA10103-DPB10402 = target: T3, DPA10103-DPB10402 (Homo sapiens, UniProt P04440+P20036, A65V/A84D/A85E/L207M); test: Competitive MHC class II binding assay, DPA10103-DPB10402
T3 sequence (P20036 29-260): T1 sequence (P20036 29-260)
T3 sequence (P04440 30-258 A65V/A84D/A85E): T1 sequence (P04440 30-258 A65V/A84D/A85E/K98E) with E69K

DQA10301-DQB10302 = DQA10301-DQB10302 (Homo sapiens, UniProt P01909+P01920, A209T/A45G/C70Q/D89A/DUP78-78/E183D/E77G/F237L/G63E/H199R/I129T/K197E/L178F/L74F/L98V/Q57E/Q76R/S185I/S97I/T217I/T49S/V73L/Y58L); test: Competitive MHC class II binding assay, DQA10301-DQB10302
DQA10401-DQB10402 = test: Competitive MHC class II binding assay, DQA10401-DQB10402

| pIC50 (DRB1_0101) | pIC50 (DRB1_0405) | pIC50 (DRB1_0701) | pIC50 (DRB1_0901) | pIC50 (DRB1_1302) | pIC50 (DRB3_0202) | pIC50 (DRB4_0101) | pIC50 (DQA10501-DQB10201) | pIC50 (DQA10501-DQB10301) | Compound | pIC50 (DPA10103-DPB10201) | pIC50 (DPA10103-DPB10401) | also measured |
| --- | --- | --- | --- | --- | --- | --- | --- | --- | --- | --- | --- | --- |
|  |  |  |  |  |  |  |  |  | CC[C@H](C)[C@H](NC(=O)[C@H](CCSC)NC(=O)[C@H](CCCNC(=N)N)NC(=O)[C@H](Cc1ccccc1)NC(=O)[C@H](CCCCN)NC(=O)[C@@H](NC(=O)[C@H](CCSC)NC(=O)[C@H](CC(N)=O)NC(=O)[C@H](Cc1ccc(O)cc1)NC(=O)[C@@H](NC(=O)[C@@H](N)CCC(=O)O)[C@@H](C)CC)C(C)C)C(=O)N[C@@H](C)C(=O)NCC(=O)N[C@@H](CCC(N)=O)C(=O)N[C@@H](CCC(=O)O)C(=O)O [pep-117] | > 6.00 | > 6.00 |  |
| > 6.00 | > 6.00 | > 6.00 | > 6.00 | > 6.00 | > 6.00 | > 6.00 | > 6.00 | > 6.00 | CC[C@H](C)[C@H](NC(=O)CNC(=O)[C@@H](N)CCCNC(=N)N)C(=O)N[C@@H](CCC(=O)O)C(=O)N[C@@H](Cc1ccc(O)cc1)C(=O)N[C@H](C(=O)N[C@@H](CCC(N)=O)C(=O)N[C@@H](Cc1c[nH]cn1)C(=O)N[C@@H](CC(N)=O)C(=O)NCC(=O)N[C@H](C(=O)N[C@H](C(=O)N[C@@H](CCC(N)=O)C(=O)N[C@@H](CCC(=O)O)C(=O)N[C@@H](CO)C(=O)N[C@@H](Cc1ccc(O)cc1)C(=O)N[C@@H](Cc1ccc(O)cc1)C(=O)N[C@@H](CCCNC(=N)N)C(=O)N[C@@H](Cc1ccc(O)cc1)C(=O)N[C@H](C(=O)N[C@@H](C)C(=O)N[C@@H](CCCNC(=N)N)C(=O)O)C(C)C)C(C)C)C(C)C)[C@@H](C)CC [pep-123] | > 6.00 | > 6.00 | pIC50 (DRB1_0802): > 6.00; pIC50 (DRB1_1101): > 6.00; pIC50 (DRB1_1201): > 6.00; pIC50 (DRB1_1501): > 6.00; pIC50 (DRB5_0101): > 6.00; pIC50 (DQA10102-DQB10602): > 6.00 |
| > 6.00 | > 6.00 | > 6.00 | > 6.00 | > 6.00 | > 6.00 | > 6.00 | > 6.00 | > 6.00 | NGYGYFAANIDLMM [pep-011] |  |  | pIC50 (DQA10101-DQB10501): > 6.00; pIC50 (DRB1_0401): > 6.00; binding to HLA Class II allele DRB1_1302 (DRB1_1302; as shown in Table 16a): binds to at least the same alleles as peptide 041; pIC50 (DRB3_0101): > 6.00; binding to HLA Class II allele DRB3_0101 (DRB3_0101; as shown in Table 16a): binds to at least the same alleles as peptide 041; binding to HLA Class II allele DRB3_0202 (DRB3_0202; as shown in Table 16a): binds to at least the same alleles as peptide 041; pIC50 (DPA10103-DPB10402): > 6.00; binding to HLA Class II allele DQA10501-DQB10201 (DQA10501-DQB10201; as shown in Table 16a): binds to at least the same alleles as peptide 041; pIC50 (DQA10301-DQB10302): > 6.00; binding to HLA Class II allele DQA10401-DQB10402 (DQA10401-DQB10402; as shown in Table 16a): binds to at least the same alleles as peptide 041; pIC50 (DQA10401-DQB10402; read-out: HLA-DQA10401-DQB10402, positive binding at cutoff 1000 nM): > 6.00 |
